US9365556B2, “3,5-diaminopyrazole kinase inhibitors” (Axikin Pharmaceuticals, Inc., priority 2012, dated 2016)

Columns and labels:
[1] = molecular target: T1, kinase domain protein of RC kinase (Homo sapiens, UniProt Q56UN5); assay: Enzymatic assay for kinase inhibitory activity (Crebtide substrate, LANCE read-out); type: biochemical; conditions: compound at 1 μM
T1 sequence (Q56UN5 1061-1324 limits assumed): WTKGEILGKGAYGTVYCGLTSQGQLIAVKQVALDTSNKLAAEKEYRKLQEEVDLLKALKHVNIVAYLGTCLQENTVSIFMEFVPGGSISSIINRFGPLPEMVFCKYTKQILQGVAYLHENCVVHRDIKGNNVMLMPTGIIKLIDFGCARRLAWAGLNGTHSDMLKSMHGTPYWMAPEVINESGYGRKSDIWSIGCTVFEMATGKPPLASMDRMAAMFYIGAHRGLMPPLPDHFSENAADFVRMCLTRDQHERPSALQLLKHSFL
Outline: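 Compound tested at 1 μM final in HEPES/MgCl2/DTT buffer with 50 nM Crebtide and kinase domain at 1 μM ATP; full-length kinase at 3 μM ATP after 45 min preincubation. Reaction 45 min at room temperature, stopped with EDTA, read by LANCE TR-FRET (665/615 nm). Activity binned as % inhibition at 1 μM.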

inhibition at 1 µM [1] [%]	melting point [°C]	SMILES	Activity (inhibition of the RC kinase activity) ([1]; 1 µM)	Activity (inhibition of the RC kinase activity) [1]
5 to 20	238 to 246	COc1cccc(O)c1/C=N/c1[nH]nc(Nc2ccccc2Cl)c1C(N)=O [Compound B1]		
≥ 50	296 to 298	NC(=O)c1c(Nc2cccc(Cl)c2)n[nH]c1N=Cc1ccc(O)c([N+](=O)[O-])c1 [Compound B2, 3-((3-chlorophenyl)amino)-5-((4-hydroxy-3-nitrobenzylidene)amino)-1H-pyrazole-4-carboxamide]		
5 to 20	295 to 297	COc1ccc(C=Nc2[nH]nc(Nc3cccc(Cl)c3)c2C(N)=O)cc1 [Compound B3, 3-((3-chlorophenyl)amino)-5-((4-methoxybenzylidene)amino)-1H-pyrazole-4-carboxamide]		
5 to 20	303 to 305	NC(=O)c1c(Nc2cccc(Cl)c2)n[nH]c1/N=C/c1ccc(Cl)cc1 [Compound B4, 5-((4-chlorobenzylidene)amino)-3-((3-chlorophenyl)amino)-1H-pyrazole-4-carboxamide]		
≥ 50	261 to 263	NC(=O)c1c(Nc2cccc(Cl)c2)n[nH]c1/N=C/c1ccc(O)cc1 [Compound B5]		
≥ 50	268 to 270	COc1cc(/C=N/c2[nH]nc(Nc3cccc(Cl)c3)c2C(N)=O)ccc1O [Compound B7]		
20 to 50	283 to 285	COc1cccc(/C=N/c2[nH]nc(Nc3cccc(Cl)c3)c2C(N)=O)c1 [Compound B8]		
≥ 50	275 to 277	NC(=O)c1c(Nc2ccccc2)n[nH]c1/N=C/c1ccc(O)c([N+](=O)[O-])c1 [Compound B9]		
5 to 20	291 to 293	NC(=O)c1c(Nc2ccccc2)n[nH]c1/N=C/c1ccc(Cl)cc1 [Compound B12]		
20 to 50	257 to 260	COc1ccc(/C=N/c2[nH]nc(Nc3ccccc3)c2C(N)=O)cc1 [Compound B13]		
5 to 20	280 to 283	NC(=O)c1c(Nc2cccc(Cl)c2)n[nH]c1/N=C/c1cccc2ccccc12 [Compound B15]		
20 to 50	270 to 273	COc1ccccc1/C=N/c1[nH]nc(Nc2cccc(Cl)c2)c1C(N)=O [Compound B18]		
20 to 50	265 to 267	NC(=O)c1c(Nc2cccc(Cl)c2)n[nH]c1/N=C/c1c[nH]cn1 [Compound B19]		
20 to 50	273 to 277	NC(=O)c1c(Nc2ccc(Cl)cc2)n[nH]c1/N=C/c1ccc[nH]1 [Compound B20]		
5 to 20	303 to 306	NC(=O)c1c(Nc2ccc(Cl)cc2)n[nH]c1/N=C/c1ccccc1 [Compound B21]		
20 to 50	295 to 297	NC(=O)c1c(Nc2ccc(Cl)cc2)n[nH]c1/N=C/c1ccc(O)c([N+](=O)[O-])c1 [Compound B22]		
≤ 5	313 to 315	COc1ccc(/C=N/c2[nH]nc(Nc3ccc(Cl)cc3)c2C(N)=O)cc1 [Compound B23]		
≤ 5	307 to 309	NC(=O)c1c(Nc2ccc(Cl)cc2)n[nH]c1/N=C/c1ccc(Cl)cc1 [Compound B24]		
≤ 5	290 to 296	NC(=O)c1c(Nc2ccc(Cl)cc2)n[nH]c1/N=C/c1cccc2ccccc12 [Compound B25]		
≥ 50	288 to 289	NC(=O)c1c(Nc2ccc(Cl)cc2)n[nH]c1/N=C/c1ccc(O)cc1 [Compound B26]		
5 to 20	291 to 293	NC(=O)c1c(Nc2ccc(Cl)cc2)n[nH]c1/N=C/c1ccc([N+](=O)[O-])cc1 [Compound B27]		

More lines, now with the values behind:

SMILES	inhibition at 1 µM [1] [%]	melting point [°C]	Activity (inhibition of the RC kinase activity) ([1]; 1 µM)	Activity (inhibition of the RC kinase activity) [1]
CS(=O)(=O)N1CCC(/C=N/c2[nH]nc(Nc3cccc(Cl)c3)c2C#N)CC1 [Compound A80]	≤ 5	102 to 105		
N#Cc1c(Nc2cccc(Cl)c2)n[nH]c1/N=C/c1ccccc1-c1cccs1 [Compound A81]	5 to 20	75 to 80		
N#Cc1c(Nc2cccc(Cl)c2)n[nH]c1/N=C/c1ccc(OC(F)F)c(O)c1 [Compound A82]	≤ 5	164 to 176		
N#Cc1c(Nc2cccc(Cl)c2)n[nH]c1/N=C/c1ccc(-c2ccccn2)cc1 [Compound A84]	≤ 5	326 to 329		
N#Cc1c(Nc2cccc(Cl)c2)n[nH]c1/N=C/c1cncc(N2CCCC2)c1 [Compound A86]	≤ 5	305 to 309		
N#Cc1c(Nc2cccc(Cl)c2)n[nH]c1/N=C/c1ccc(-n2cncn2)cc1 [Compound A87]	≤ 5	284 to 288		
N#Cc1c(Nc2cccc(Cl)c2)n[nH]c1/N=C/c1ccc(OCCO)cc1 [Compound A88]	5 to 20	229 to 232		
N#Cc1c(Nc2cccc(Cl)c2)n[nH]c1/N=C/c1ccc2snnc2c1 [Compound A90]	≤ 5	276 to 281		
N#Cc1c(Nc2cccc(Cl)c2)n[nH]c1/N=C/c1ccc(Cl)cc1O [Compound A91]	≤ 5	283 to 284		
COc1ccc(/C=N/c2[nH]nc(Nc3cccc(Cl)c3)c2C#N)cc1F [Compound A93]	20 to 50	217 to 220		
N#Cc1c(Nc2cccc(Cl)c2)n[nH]c1/N=C/c1ccc(F)cc1O [Compound A98]	20 to 50	232 to 238		
Cc1cc(F)ccc1/C=N/c1[nH]nc(Nc2cccc(Cl)c2)c1C#N [Compound A99]	5 to 20	253 to 257		
COc1ccc(/C=N/c2[nH]nc(Nc3cccc(Cl)c3)c2C#N)cn1 [Compound A100]	5 to 20	286 to 291		
Cc1ccc(/C=N/c2[nH]nc(Nc3cccc(Cl)c3)c2C#N)c(O)c1 [Compound A101]	≤ 5	293 to 296		
N#Cc1ccc(/C=N/c2[nH]nc(Nc3cccc(Cl)c3)c2C#N)cc1 [Compound A102]	5 to 20	266 to 274		
N#Cc1c(Nc2cccc(Cl)c2)n[nH]c1/N=C/c1cnc(N)s1 [Compound A103]		221 to 225	D (no greater than 5% inhibition of the RC kinase activity at 1 μM)	
N#Cc1c(Nc2cccc(Cl)c2)n[nH]c1/N=C/c1cc[nH]c1 [Compound A106]	≤ 5	240 to 248		
N#Cc1c(Nc2cccnc2)n[nH]c1/N=C/c1ccc(O)cc1 [Compound A110]	20 to 50	311 to 314		
N#Cc1c(Nc2cccc(Cl)c2)n[nH]c1/N=C/c1ccc(Oc2ncccn2)cc1 [Compound A111]	20 to 50	224 to 230		
N#Cc1c(Nc2cccc(Cl)c2)n[nH]c1/N=C/c1ccc(Oc2ccc(C(F)(F)F)cn2)cc1 [Compound A112]		268 to 270		C (no greater than 20% but at least 5% inhibition of the RC kinase activity at 1 μM)
